Measured values: a melting point compilation (Tetko et al.)

`Cc1sc(NC(=O)C2CC2)c(C(=O)O)c1C` gave a melting point of 148 to 152 °C.
Molecule `O=C1Nc2ccccc2C1O` (stereo unspecified) has a melting point of 161 to 163 °C.
With `CC(C(=O)O)S(=O)(=O)Cc1ccc(Br)cc1` (stereo unspecified) the melting point was 135 to 137 °C.
Work on `CC(C)(C)CCS(=O)(=O)Cl` yielded a melting point of 33 to 35 °C.
`CCOC(=O)c1sc2cccc(F)c2c1CBr` showed a melting point of 133 to 135 °C.
`Cn1c(=O)n(Cc2ccc(Br)cc2)c(=O)c2ccc(C(F)(F)F)nc21` showed a melting point of 103 to 105 °C.
`O=C(O)CN1C(=O)Cc2ccccc2C1=O` gave a melting point of 246 to 248 °C.
Work on `Nc1ccc2[nH]c(C(F)F)nc2c1` yielded a melting point of 129 to 131 °C.
`CN(C)C(=O)c1cccc([N+](=O)[O-])c1` gave a melting point of 79 to 81 °C.
In the case of `Cc1ccc(N(C(=O)CCl)C2C=CS(=O)(=O)C2)cc1` (stereo unspecified), the melting point is reported as 118 to 120 °C.
For `Cc1ccc(C(=O)N2CCCC(C(=O)O)C2)cc1` (stereo unspecified), the melting point was 146 to 148 °C.
In the case of `O=Cc1ccc(Sc2ncccn2)c([N+](=O)[O-])c1`, the melting point is reported as 100 to 102 °C.
`COc1ccc(C(=O)c2ccccc2C(=O)O)cc1F` showed a melting point of 147 to 149 °C.
`NC1(C(=O)O)CCOC1` (stereo unspecified) showed a melting point of 244 to 246 °C.
In the case of `Nc1cccc(OCc2cccnc2)c1`, the melting point is reported as 97 to 99 °C.
`Nc1nc(C=Cc2ccccc2)cs1` gave a melting point of 147 to 149 °C.
Work on `NC(=O)Cn1ccc([N+](=O)[O-])n1` yielded a melting point of 159 to 161 °C.
For `CNS(=O)(=O)c1cc(C(=O)O)ccc1Cl`, the melting point was 226 to 228 °C.
`Cc1cc(C)n(-c2ccc(C(N)=NO)cn2)n1` gave a melting point of 139 to 141 °C.
With `O=C(O)c1ccc(-c2cccc(Cl)c2)s1` the melting point was 222 to 224 °C.
`O=C(O)C1CCCN(C(=O)N2CCc3sccc3C2)C1` (stereo unspecified) showed a melting point of 66 to 68 °C.
`C=CCn1c(SCCCCCCCCCCCC)nc2scc(-c3ccccc3)c2c1=O` gave a melting point of 84 to 86 °C.
Work on `O=C(O)CCNC(=O)c1cc(F)ccc1Br` yielded a melting point of 112 to 114 °C.
For `CC(CN1CCOCC1)C(=O)NN` (stereo unspecified), the melting point was 86 to 88 °C.
`NC(=NO)c1ccc(Br)s1` showed a melting point of 124 to 126 °C.
In the case of `O=C(O)Cc1csc(-c2ncccn2)n1`, the melting point is reported as 173 to 175 °C.
`CCn1cnnc1-c1cccc(N)c1` showed a melting point of 179 to 181 °C.
`CC(C)n1c(S)nc2ccccc21` showed a melting point of 138 to 140 °C.
In the case of `OC1CCC(c2ccccc2)CC1` (stereo unspecified), the melting point is reported as 117 to 119 °C.
For `O=C(O)COc1cc(Cl)cc(Cl)c1`, the melting point was 115 to 117 °C.
In the case of `OC(c1ccc(Br)cc1)C(F)(F)F` (stereo unspecified), the melting point is reported as 50 to 52 °C.
Work on `CC1CC1C(=O)NCCC(=O)O` (stereo unspecified) yielded a melting point of 94 to 96 °C.
In the case of `CCCn1ncc(C(=O)O)c1C1CC1`, the melting point is reported as 119 to 121 °C.
With `Nc1cccc(-c2cn3cccnc3n2)c1` the melting point was 125 to 130 °C.
`Cc1cc(N)ccc1C(N)=O` showed a melting point of 154 to 156 °C.
Molecule `Cc1oc(-c2ccccc2F)nc1C(=O)O` has a melting point of 174 to 176 °C.
Molecule `C=CC(=O)NCC1CCCCC1` has a melting point of 47 to 49 °C.
In the case of `CCOC(=O)Cc1ccc(C(C)=O)cc1`, the melting point is reported as 55 to 57 °C.
`Fc1cccc(-c2noc(S)n2)c1` gave a melting point of 93 to 95 °C.
Work on `Cc1ccc(C(=O)CC#N)cc1F` yielded a melting point of 82 to 84 °C.
With `O=C(O)c1c2c(nc3ccccc13)C(=Cc1ccc(Cl)c(Cl)c1)CC2` the melting point was 184 to 186 °C.
With `O=C(Nc1cccc(NC(=O)c2ccco2)c1)OCC(F)(F)F` the melting point was 167 to 169 °C.
`O=Cc1cnc(-c2ccccc2)s1` gave a melting point of 87 to 89 °C.
`O=c1[nH]c(Cl)cc2ccccc12` showed a melting point of 214 to 216 °C.
Work on `NC(=S)NC1CC1` yielded a melting point of 138 to 140 °C.
`CC(C)(C)OC(=O)N1CCCC(C)(C(=O)O)C1` (stereo unspecified) showed a melting point of 117 to 119 °C.
Molecule `CC(Cl)C(=O)N1c2ccccc2Sc2ccccc21` (stereo unspecified) has a melting point of 118 to 120 °C.
For `CC(C(=O)O)n1c(S)nc2ccccc2c1=O` (stereo unspecified), the melting point was 238 to 240 °C.
Molecule `NC(=O)C1CCN(CCc2ccc(N)cc2)CC1` has a melting point of 223 to 225 °C.
Molecule `O=C(O)C1CCCN1C(=O)Cc1ccccc1` (stereo unspecified) has a melting point of 147 to 149 °C.
For `O=C1OC(=O)C(Cl)=C1Cl`, the melting point was 107 to 109 °C.
Molecule `CCc1c[nH]c(S)n1` has a melting point of 163 to 165 °C.
Work on `CNS(=O)(=O)Cc1ccccc1CN` yielded a melting point of 130 to 132 °C.
`CC(Cl)c1nc2scc(-c3ccccc3)c2c(=O)[nH]1` (stereo unspecified) showed a melting point of 165 to 167 °C.
Molecule `CCOC(=O)/C(C#N)=C\Nc1cc(C)ccc1OC` has a melting point of 131 to 133 °C.
With `O=C(O)c1cc(-c2ccco2)nc2onc(C3CC3)c12` the melting point was 215 to 217 °C.
With `N#Cc1ccccc1OCc1ccc(C(=O)O)o1` the melting point was 145 to 147 °C.
With `O=C(Nc1cccc(Cl)c1)c1ccc(Cl)nc1` the melting point was 177 to 179 °C.
`Nc1cc(-c2cccc(Cl)c2)nn1-c1ccccc1` gave a melting point of 118 to 120 °C.
Work on `O=C(O)CCCn1ccc2cc(Cl)ccc21` yielded a melting point of 79 to 81 °C.
In the case of `O=C(O)c1cnc(-c2ccsc2)s1`, the melting point is reported as 208 to 210 °C.
Work on `CC(Oc1ccccc1C(F)(F)F)C(=O)O` (stereo unspecified) yielded a melting point of 145 to 147 °C.
Molecule `NN1C(=O)NC(c2ccccc2)(c2ccccc2)C1=O` has a melting point of 188 to 192 °C.
For `O=c1c(Cl)c(Cl)cnn1-c1ccc(Cl)cc1`, the melting point was 186 to 188 °C.
Molecule `O=C(O)c1cccc(Oc2ccc(Cl)cc2)n1` has a melting point of 115 to 117 °C.
Work on `CC(C)(C)Oc1ccc(C(N)=S)cc1` yielded a melting point of 179 to 181 °C.
Work on `Cc1ccc2c(c1)C(=NO)C(=O)N2` yielded a melting point of 239 to 241 °C.
`O=C(Nc1ccc(Br)cc1Cl)OCC(F)(F)F` showed a melting point of 70 to 72 °C.
For `Cc1c(C2CC2)nc2ccc(Br)cc2c1C(=O)O`, the melting point was 218 to 220 °C.
In the case of `COc1ccc(CNC(=O)CCl)cc1`, the melting point is reported as 103 to 105 °C.
For `O=C(O)Cc1csc(NC(=O)c2ccccc2I)n1`, the melting point was 167 to 169 °C.
